# Measured values published in patent publication US9790210B2, “N-(monocyclic aryl),N'-pyrazolyl-urea, thiourea, guanidine and cyanoguanidine compounds as TrkA kinase inhibitors” (Array BioPharma Inc., priority 2012, dated 2017).
# Tests used:
# Experiment in all cases: KinaseProfiler
# Type in all cases: biochemical
# Conditions in all cases: 10 μM, ATP near Km
# EphB4 = target: T1, EphB4 (Homo sapiens, UniProt P54760)
# T1 construct: purchased Millipore, Inc. (KinaseProfiler service)
# Summary of the method: (§1)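 Inhibition was profiled at 10 μM in duplicate. Kinase-specific ATP levels near Km were used, and residual activity is stated as percent of control, averaged over both replicates.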
# SGK1 = target: T2, SGK1 (Homo sapiens, UniProt O00141)
# T2 construct: purchased Millipore, Inc. (KinaseProfiler service)
# Summary of the method: as §1
# GRK6 = target: T3, GRK6 (Homo sapiens, UniProt P43250)
# T3 construct: purchased Millipore, Inc. (KinaseProfiler service)
# Summary of the method: as §1
# PDK1 = target: T4, PDK1 (Homo sapiens, UniProt O15530)
# T4 construct: purchased Millipore, Inc. (KinaseProfiler service)
# Summary of the method: as §1
# NEK7 = target: T5, NEK7 (Homo sapiens, UniProt Q8TDX7)
# T5 construct: purchased Millipore, Inc. (KinaseProfiler service)
# Summary of the method: as §1
# TAO1 = target: T6, TAO1 (Homo sapiens, UniProt Q7L7X3)
# T6 construct: purchased Millipore, Inc. (KinaseProfiler service)
# Summary of the method: as §1
# ROCK-II = target: T7, ROCK-II (Homo sapiens, UniProt O75116)
# T7 construct: purchased Millipore, Inc. (KinaseProfiler service)
# Summary of the method: as §1
# MSK2 = target: T8, MSK2 (Homo sapiens, UniProt O75676)
# T8 construct: purchased Millipore, Inc. (KinaseProfiler service)
# Summary of the method: as §1
# EphA4 = target: T9, EphA4 (Homo sapiens, UniProt P54764)
# T9 construct: purchased Millipore, Inc. (KinaseProfiler service)
# Summary of the method: as §1
# MAPKAP-K5 = target: T10, MAPKAP-K5 (Homo sapiens, UniProt Q8IW41)
# T10 construct: purchased Millipore, Inc. (KinaseProfiler service)
# Summary of the method: as §1
# PDGFRalpha = target: T11, PDGFRalpha (Homo sapiens, UniProt P16234)
# T11 construct: purchased Millipore, Inc. (KinaseProfiler service)
# Summary of the method: as §1
# CAMK2d = target: T12, CAMK2d (Homo sapiens, UniProt Q13557)
# T12 construct: purchased Millipore (KinaseProfiler service)
# Summary of the method: as §1
# CK1delta = target: T13, CK1delta (Homo sapiens, UniProt P48730)
# T13 construct: purchased Millipore, Inc. (KinaseProfiler service)
# Summary of the method: as §1
# Pim-1 = target: T14, Pim-1 (Homo sapiens, UniProt P11309)
# T14 construct: purchased Millipore, Inc. (KinaseProfiler service)
# Summary of the method: as §1
# PrKX = target: T15, PrKX (Homo sapiens, UniProt P51817)
# T15 construct: purchased Millipore, Inc. (KinaseProfiler service)
# Summary of the method: as §1
# DCAMKL2 = target: T16, DCAMKL2 (Homo sapiens, UniProt Q8N568)
# T16 construct: purchased Millipore, Inc. (KinaseProfiler service)
# Summary of the method: as §1
# DRAK1 = target: T17, DRAK1 (Homo sapiens, UniProt Q9UEE5)
# T17 construct: purchased Millipore, Inc. (KinaseProfiler service)
# Summary of the method: as §1
# MST1 = target: T18, MST1 (Homo sapiens, UniProt Q13043)
# T18 construct: purchased Millipore, Inc. (KinaseProfiler service)
# Summary of the method: as §1
# PAK5 = target: T19, PAK5 (Homo sapiens, UniProt Q9P286)
# T19 construct: purchased Millipore, Inc. (KinaseProfiler service)
# Summary of the method: as §1
# DAPK2 = target: T20, DAPK2 (Homo sapiens, UniProt Q9UIK4)
# T20 construct: purchased Millipore, Inc. (KinaseProfiler service)
# Summary of the method: as §1
# ERK2 = target: T21, ERK2 (Homo sapiens, UniProt P28482)
# T21 construct: purchased Millipore, Inc. (KinaseProfiler service)
# Summary of the method: as §1
# SRPK2 = target: T22, SRPK2 (Homo sapiens, UniProt P78362)
# T22 construct: purchased Millipore, Inc. (KinaseProfiler service)
# Summary of the method: as §1
# JAK2 = target: T23, JAK2 (Homo sapiens, UniProt O60674)
# T23 construct: purchased Millipore, Inc. (KinaseProfiler service)
# Summary of the method: as §1
# PDGFRbeta = target: T24, PDGFRbeta (Homo sapiens, UniProt P09619)
# T24 construct: purchased Millipore, Inc. (KinaseProfiler service)
# Summary of the method: as §1
# LKB1 = target: T25, LKB1 (Homo sapiens, UniProt Q15831)
# T25 construct: purchased Millipore, Inc. (KinaseProfiler service)
# Summary of the method: as §1
# RIPK2 = target: T26, RIPK2 (Homo sapiens, UniProt O43353)
# T26 construct: purchased Millipore, Inc. (KinaseProfiler service)
# Summary of the method: as §1
# JAK3 = target: T27, JAK3 (Homo sapiens, UniProt P52333)
# T27 construct: purchased Millipore, Inc. (KinaseProfiler service)
# Summary of the method: as §1
# Lck = target: T28, Lck (Homo sapiens, UniProt P06239)
# T28 construct: purchased Millipore, Inc. (KinaseProfiler service)
# Summary of the method: as §1
# JNKlalpha1 = target: T29, JNKlalpha1 (Homo sapiens, UniProt P45983)
# T29 construct: purchased Millipore, Inc. (KinaseProfiler service)
# Summary of the method: as §1
# MICK4_m = target: T30, MICK4_m (Mus musculus, UniProt P47809)
# T30 construct: purchased Millipore, Inc. (KinaseProfiler service)
# Summary of the method: as §1
# TrkB = target: T31, TrkB (Homo sapiens, UniProt Q16620)
# T31 construct: purchased Millipore, Inc. (KinaseProfiler service)
# Summary of the method: as §1
# Rsk2 = target: T32, Rsk2 (Homo sapiens, UniProt P51812)
# T32 construct: purchased Millipore, Inc. (KinaseProfiler service)
# Summary of the method: as §1
# CK1gamma1 = target: T33, CK1gamma1 (Homo sapiens, UniProt Q9HCP0)
# T33 construct: purchased Millipore, Inc. (KinaseProfiler service)
# Summary of the method: as §1
# Hck = target: T34, Hck (Homo sapiens, UniProt P08631)
# T34 construct: purchased Millipore, Inc. (KinaseProfiler service)
# Summary of the method: as §1
# PKCtheta = target: T35, PKCtheta (Homo sapiens, UniProt Q04759)
# T35 construct: purchased Millipore, Inc. (KinaseProfiler service)
# Summary of the method: as §1
# CK2 = target: T36, CK2 (Homo sapiens, UniProt P68400)
# T36 construct: purchased Millipore, Inc. (KinaseProfiler service)
# Summary of the method: as §1
# BLK_m = target: T37, BLK_m (Mus musculus, UniProt P16277)
# T37 construct: purchased Millipore (KinaseProfiler service)
# Summary of the method: as §1
# Rsk1 = target: T38, Rsk1 (Homo sapiens, UniProt Q15418)
# T38 construct: purchased Millipore, Inc. (KinaseProfiler service)
# Summary of the method: as §1
# NEK2 = target: T39, NEK2 (Homo sapiens, UniProt P51955)
# T39 construct: purchased Millipore, Inc. (KinaseProfiler service)
# Summary of the method: as §1
# DAPK3 = target: T40, DAPK3 (Homo sapiens, UniProt O43293)
# T40 construct: purchased Millipore, Inc. (KinaseProfiler service)
# Summary of the method: as §1
# DDR2 = target: T41, DDR2 (Homo sapiens, UniProt Q16832)
# T41 construct: purchased Millipore, Inc. (KinaseProfiler service)
# Summary of the method: as §1
# T12 sequence (Q13557 whole entry): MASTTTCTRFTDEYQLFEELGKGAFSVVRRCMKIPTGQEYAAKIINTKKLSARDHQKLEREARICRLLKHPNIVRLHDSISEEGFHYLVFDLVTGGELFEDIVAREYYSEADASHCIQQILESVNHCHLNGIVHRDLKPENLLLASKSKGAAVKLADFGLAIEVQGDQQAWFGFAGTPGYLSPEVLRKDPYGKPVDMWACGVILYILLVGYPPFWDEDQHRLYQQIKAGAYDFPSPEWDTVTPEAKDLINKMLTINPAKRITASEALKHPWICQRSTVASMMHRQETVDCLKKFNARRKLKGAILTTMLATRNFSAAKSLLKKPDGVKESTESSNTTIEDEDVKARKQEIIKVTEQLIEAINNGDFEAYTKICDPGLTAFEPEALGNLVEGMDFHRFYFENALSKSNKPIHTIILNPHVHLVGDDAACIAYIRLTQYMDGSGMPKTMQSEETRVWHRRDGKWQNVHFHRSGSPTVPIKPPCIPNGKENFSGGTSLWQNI
# T15 sequence (P51817 whole entry): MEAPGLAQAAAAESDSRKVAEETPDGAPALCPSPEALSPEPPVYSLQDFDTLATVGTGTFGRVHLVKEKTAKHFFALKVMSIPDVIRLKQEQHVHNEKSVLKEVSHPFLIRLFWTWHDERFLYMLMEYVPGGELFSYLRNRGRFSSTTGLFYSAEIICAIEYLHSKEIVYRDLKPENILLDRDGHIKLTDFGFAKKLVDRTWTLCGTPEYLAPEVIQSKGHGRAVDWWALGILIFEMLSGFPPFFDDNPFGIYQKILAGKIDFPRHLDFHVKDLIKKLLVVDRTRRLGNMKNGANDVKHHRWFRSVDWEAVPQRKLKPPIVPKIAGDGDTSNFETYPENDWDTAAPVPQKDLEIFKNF
# T35 sequence (Q04759 whole entry): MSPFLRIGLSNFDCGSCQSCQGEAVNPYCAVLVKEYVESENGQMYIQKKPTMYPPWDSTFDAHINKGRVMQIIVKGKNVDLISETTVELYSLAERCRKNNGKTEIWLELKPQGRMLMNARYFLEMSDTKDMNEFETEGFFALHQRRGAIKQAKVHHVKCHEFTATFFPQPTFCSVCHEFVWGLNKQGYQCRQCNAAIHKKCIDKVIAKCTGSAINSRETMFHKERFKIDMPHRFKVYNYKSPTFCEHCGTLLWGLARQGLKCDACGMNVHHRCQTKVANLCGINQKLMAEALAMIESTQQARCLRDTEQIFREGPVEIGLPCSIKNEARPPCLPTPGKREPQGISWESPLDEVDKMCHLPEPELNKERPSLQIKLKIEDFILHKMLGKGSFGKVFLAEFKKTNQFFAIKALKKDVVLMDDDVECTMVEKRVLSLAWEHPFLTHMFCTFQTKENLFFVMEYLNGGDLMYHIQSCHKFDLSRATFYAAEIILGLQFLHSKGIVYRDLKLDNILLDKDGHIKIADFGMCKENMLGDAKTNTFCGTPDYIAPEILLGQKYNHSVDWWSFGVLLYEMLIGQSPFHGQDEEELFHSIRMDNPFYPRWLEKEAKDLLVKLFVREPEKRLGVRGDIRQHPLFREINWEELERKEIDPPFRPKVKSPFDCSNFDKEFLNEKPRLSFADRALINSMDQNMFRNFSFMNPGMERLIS
# T16 sequence (Q8N568 whole entry): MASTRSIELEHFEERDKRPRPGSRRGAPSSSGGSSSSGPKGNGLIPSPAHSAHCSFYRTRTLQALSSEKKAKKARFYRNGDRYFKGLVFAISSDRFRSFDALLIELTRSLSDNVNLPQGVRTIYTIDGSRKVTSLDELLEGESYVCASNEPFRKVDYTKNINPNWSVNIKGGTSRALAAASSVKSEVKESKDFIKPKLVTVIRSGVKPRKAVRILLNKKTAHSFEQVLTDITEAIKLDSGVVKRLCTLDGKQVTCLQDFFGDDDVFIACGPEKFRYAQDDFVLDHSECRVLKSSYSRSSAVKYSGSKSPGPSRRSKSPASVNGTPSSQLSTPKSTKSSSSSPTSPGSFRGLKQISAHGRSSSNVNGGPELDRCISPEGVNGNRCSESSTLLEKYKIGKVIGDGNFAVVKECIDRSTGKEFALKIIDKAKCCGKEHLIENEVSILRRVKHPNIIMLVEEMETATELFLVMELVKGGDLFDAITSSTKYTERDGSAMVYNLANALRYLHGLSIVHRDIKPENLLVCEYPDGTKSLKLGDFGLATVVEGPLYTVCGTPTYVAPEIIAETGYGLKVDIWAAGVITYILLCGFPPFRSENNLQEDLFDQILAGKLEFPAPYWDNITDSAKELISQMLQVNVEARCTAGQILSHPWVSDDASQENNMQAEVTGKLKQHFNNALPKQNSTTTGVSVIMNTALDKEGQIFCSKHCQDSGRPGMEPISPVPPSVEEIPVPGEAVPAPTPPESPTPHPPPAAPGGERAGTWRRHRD
# T31 sequence (Q16620 32-822): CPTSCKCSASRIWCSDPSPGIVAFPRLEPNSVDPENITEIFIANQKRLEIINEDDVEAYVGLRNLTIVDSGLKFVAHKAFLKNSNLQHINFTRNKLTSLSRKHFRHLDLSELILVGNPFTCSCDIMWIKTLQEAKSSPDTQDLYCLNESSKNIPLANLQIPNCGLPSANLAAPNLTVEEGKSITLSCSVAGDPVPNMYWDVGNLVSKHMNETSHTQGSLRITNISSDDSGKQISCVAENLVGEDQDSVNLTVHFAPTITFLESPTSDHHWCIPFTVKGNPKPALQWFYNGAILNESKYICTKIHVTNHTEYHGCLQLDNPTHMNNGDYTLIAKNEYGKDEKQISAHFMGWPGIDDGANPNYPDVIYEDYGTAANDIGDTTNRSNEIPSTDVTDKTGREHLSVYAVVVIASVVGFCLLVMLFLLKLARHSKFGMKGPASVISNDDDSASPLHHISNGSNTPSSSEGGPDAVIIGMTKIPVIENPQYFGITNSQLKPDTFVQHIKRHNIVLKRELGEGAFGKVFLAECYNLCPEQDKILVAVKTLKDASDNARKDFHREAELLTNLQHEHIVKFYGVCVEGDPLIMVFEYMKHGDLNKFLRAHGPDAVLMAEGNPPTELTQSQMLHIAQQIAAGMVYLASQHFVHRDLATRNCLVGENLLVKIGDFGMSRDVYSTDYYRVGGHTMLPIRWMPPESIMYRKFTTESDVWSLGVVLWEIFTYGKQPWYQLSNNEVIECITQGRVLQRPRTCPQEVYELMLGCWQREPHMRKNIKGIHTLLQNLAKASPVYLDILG
# T21 sequence (P28482 whole entry): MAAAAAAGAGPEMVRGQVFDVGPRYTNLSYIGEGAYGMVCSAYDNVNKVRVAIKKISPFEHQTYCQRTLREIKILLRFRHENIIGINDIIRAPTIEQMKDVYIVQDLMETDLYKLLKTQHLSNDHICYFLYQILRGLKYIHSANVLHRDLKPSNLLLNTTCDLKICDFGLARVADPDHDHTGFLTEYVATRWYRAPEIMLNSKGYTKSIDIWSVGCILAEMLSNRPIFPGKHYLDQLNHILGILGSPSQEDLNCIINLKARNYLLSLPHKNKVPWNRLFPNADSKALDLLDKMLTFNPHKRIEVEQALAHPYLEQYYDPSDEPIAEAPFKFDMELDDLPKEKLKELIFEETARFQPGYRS
# T7 sequence (O75116 whole entry): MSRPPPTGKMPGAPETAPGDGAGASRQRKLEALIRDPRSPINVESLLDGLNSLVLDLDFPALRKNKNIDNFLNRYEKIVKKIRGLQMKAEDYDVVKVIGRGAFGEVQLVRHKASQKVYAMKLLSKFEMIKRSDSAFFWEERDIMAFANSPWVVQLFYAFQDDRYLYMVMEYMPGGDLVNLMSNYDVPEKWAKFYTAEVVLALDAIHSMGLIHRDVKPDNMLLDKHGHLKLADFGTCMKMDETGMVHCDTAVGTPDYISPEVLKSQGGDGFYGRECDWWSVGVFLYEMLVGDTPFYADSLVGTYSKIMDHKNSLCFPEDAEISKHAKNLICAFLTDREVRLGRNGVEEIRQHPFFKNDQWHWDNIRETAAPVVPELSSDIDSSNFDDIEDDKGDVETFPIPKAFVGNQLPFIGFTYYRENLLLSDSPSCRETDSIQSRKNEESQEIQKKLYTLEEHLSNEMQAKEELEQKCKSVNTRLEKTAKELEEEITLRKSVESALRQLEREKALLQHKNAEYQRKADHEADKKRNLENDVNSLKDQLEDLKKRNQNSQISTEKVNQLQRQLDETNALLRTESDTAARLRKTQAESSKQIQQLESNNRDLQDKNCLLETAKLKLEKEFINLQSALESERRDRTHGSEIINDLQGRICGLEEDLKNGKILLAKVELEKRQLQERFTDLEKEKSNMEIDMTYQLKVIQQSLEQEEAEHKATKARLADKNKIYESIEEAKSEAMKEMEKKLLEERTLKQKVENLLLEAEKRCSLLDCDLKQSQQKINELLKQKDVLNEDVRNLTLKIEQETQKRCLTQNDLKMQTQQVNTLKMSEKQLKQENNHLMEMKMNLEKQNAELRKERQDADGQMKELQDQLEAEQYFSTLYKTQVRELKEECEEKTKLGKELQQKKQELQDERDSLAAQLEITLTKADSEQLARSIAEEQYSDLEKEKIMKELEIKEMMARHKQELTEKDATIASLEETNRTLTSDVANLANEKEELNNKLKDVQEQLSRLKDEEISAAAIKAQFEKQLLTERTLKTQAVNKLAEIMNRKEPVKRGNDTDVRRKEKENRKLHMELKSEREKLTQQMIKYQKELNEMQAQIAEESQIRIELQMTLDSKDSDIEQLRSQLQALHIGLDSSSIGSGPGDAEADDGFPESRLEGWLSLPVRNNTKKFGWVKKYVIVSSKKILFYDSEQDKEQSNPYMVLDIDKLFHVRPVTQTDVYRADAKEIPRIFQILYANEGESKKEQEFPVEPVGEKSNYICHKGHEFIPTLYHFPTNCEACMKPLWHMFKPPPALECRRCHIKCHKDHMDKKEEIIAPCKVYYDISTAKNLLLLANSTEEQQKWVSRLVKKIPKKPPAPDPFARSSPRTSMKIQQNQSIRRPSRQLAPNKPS
smiles,measurement,setting,value
"COCCCc1cc(Cl)c(Cl)cc1NC(=O)Nc1c(C)c(-c2cnn(C)c2)nn1-c1ccccc1 [Example 15, 1-(4,5-dichloro-2-(3-methoxypropyl)phenyl)-3-(1′,4-dimethyl-1-phenyl-1H,1′H-[3,4′-bipyrazol]-5-yl)urea]",Avg POC,EphB4,132.5 POC
same,Avg POC,SGK1,124 POC
same,Avg POC,GRK6,103 POC
same,Avg POC,PDK1,116.5 POC
same,Avg POC,NEK7,142 POC
same,Avg POC,TAO1,113 POC
same,Avg POC,ROCK-II,99 POC
same,Avg POC,MSK2,147 POC
same,Avg POC,EphA4,115 POC
same,Avg POC,MAPKAP-K5,92 POC
same,Avg POC,PDGFRalpha,117.5 POC
same,Avg POC,CAMK2d,135.5 POC
same,Avg POC,CK1delta,111.5 POC
same,Avg POC,Pim-1,108 POC
same,Avg POC,PrKX,134 POC
same,Avg POC,DCAMKL2,136 POC
same,Avg POC,DRAK1,135.5 POC
same,Avg POC,MST1,94.5 POC
same,Avg POC,PAK5,132.5 POC
same,Avg POC,DAPK2,104.5 POC
same,Avg POC,ERK2,108 POC
same,Avg POC,SRPK2,113.5 POC
same,Avg POC,JAK2,111.5 POC
same,Avg POC,PDGFRbeta,134 POC
same,Avg POC,LKB1,90.5 POC
same,Avg POC,RIPK2,102 POC
same,Avg POC,JAK3,111 POC
same,Avg POC,Lck,94.5 POC
same,Avg POC,JNKlalpha1,107 POC
same,Avg POC,MICK4_m,137.5 POC
same,Avg POC,TrkB,105 POC
same,Avg POC,Rsk2,136.5 POC
same,Avg POC,CK1gamma1,99.5 POC
same,Avg POC,Hck,89 POC
same,Avg POC,PKCtheta,105 POC
same,Avg POC,CK2,94.5 POC
same,Avg POC,BLK_m,118.5 POC
same,Avg POC,Rsk1,118 POC
same,Avg POC,NEK2,88.5 POC
same,Avg POC,DAPK3,106 POC
same,Avg POC,DDR2,104.5 POC
